# Test results from patent US20060159776A1, “Compositions comprising components coated with a liquid impermeable but gas permeable layer, use thereof for treating cutaneous and other exocrine gland diseases” (priority 2003, published 2006).
# Entries after “also recorded” stand apart in the source; their conditions may differ.
# Tested on: adults suffering from diabetes type 2
# Test: Four-week substitution trial in adults with diabetes type 2 controlled by metformin alone
smiles,measurement,setting,value
"CN(C)C(=N)N=C(N)N [metformin, Metformin]",fasting plasma glucose (FPG) control,"before the trial, on regular metformin 500 mg twice daily to 850 mg three times daily, five adults",below 8 mmol/l
same,side-effects of taking metformin,"regular metformin, metallic taste three of five, abdominal discomfort all five",metallic taste in the mouth occasionally; also recorded: occasional abdominal discomfort
